Data reported in patent US7902219B2, “2-benzoylimidazopyridine derivatives, preparation and therapeutic use thereof” (Sanofi-Aventis, priority 2006, dated 2011).

Assays:
murine Nurr1 receptor = target: T1, murine Nurr1 receptor (Mus musculus, UniProt Q06219); test: In vitro activity on N2A cells (NBRE-luciferase reporter); type: cell-based; conditions: N2A-8NBRE-luciferase cells, products incubated 24 hours
T1 construct: endogenously expressing the murine Nurr1 receptor; host or cells: Neuro-2A (N2A) mouse neuroblastoma cells stably transfected with 8NBRE-luciferase
T1 sequence (Q06219 whole entry): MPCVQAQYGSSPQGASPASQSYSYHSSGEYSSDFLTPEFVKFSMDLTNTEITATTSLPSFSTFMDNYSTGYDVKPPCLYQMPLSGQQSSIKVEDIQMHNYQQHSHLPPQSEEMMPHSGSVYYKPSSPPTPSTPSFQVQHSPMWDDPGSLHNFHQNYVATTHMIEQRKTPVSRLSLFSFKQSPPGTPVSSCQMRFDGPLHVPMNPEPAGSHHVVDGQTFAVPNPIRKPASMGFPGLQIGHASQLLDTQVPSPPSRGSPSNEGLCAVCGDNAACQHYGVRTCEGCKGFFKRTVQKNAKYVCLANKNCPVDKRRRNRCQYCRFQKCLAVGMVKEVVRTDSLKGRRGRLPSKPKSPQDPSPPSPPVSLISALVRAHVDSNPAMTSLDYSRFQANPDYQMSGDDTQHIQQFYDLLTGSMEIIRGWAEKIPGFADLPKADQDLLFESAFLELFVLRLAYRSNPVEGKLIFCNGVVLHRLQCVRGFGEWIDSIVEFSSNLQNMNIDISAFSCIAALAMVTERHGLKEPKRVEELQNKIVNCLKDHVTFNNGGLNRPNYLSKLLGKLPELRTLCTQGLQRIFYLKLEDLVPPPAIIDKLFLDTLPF
Experimental: Evaluation of the in vitro Activity on N2A Cells
The tests consisted in evaluating the in vitro activity of the compounds of the invention on a cell line (N2A) endogenously expressing the murine Nurr1 receptor and stably transfected with the NOT binding response element (NBRE) coupled to the luciferase reporter gene. The EC50 values are between 0.01 and 1000 nM. The tests were performed according to the procedure described hereinbelow.
The cell line Neuro-2A is obtained from a standard commercial source (ATCC). The clone Neuro-2A was obtained from a spontaneous tumor originating from a strain of albino mice A by R. J Klebe et al. This line Neuro-2A is then stably transfected with 8NBRE-luciferase. The N2A-8NBRE cells are cultured to the point of confluence in 75 cm^2 culture flasks containing DMEM supplemented with 10% fetal calf serum, 4.5 g/L of glucose and 0.4 mg/ml of geneticin. After culturing for one week, the cells are recovered with 0.25% trypsin for 30 seconds and then resuspended in DMEM without phenol red, containing 4.5 g/L of glucose and 10% Hyclone defatted serum, and placed in white, transparent-based 96-well plates. The cells are deposited at a rate of 60 000 per well in 75 μL for 24 hours before adding the products. The products are applied in 25 μL and incubated for a further 24 hours. On the day of measurement, an equivalent volume (100 μL) of Steadylite is added to each well, and the wells are then left for 30 minutes to obtain complete lysis of the cells and maximum production of the signal. The plates are then measured in a microplate luminescence counter, after having been sealed with an adhesive film. The products are prepared in the form of a 10^−2 M stock solution, and then diluted in 100% of DMSO. Each concentration of product is prediluted in culture medium before incubation with the cells thus containing 0.625% final of DMSO.

human NOT receptor = test: Binding to the human NOT receptor by SPR (surface plasmon resonance, Biacore S51); conditions: immobilized GST-NOT (NOT-FL) and His-Thr-NOT 329-598, 3.75 to 0.1 μM, 4° C.
Experimental: Evaluation of the Binding to the Human NOT Receptor The direct binding between compounds of the invention and the human NOT receptor was evaluated using the SPR (surface plasmon resonance) technique. In this test, the protein is immobilized covalently on the matrix and the test molecule is injected into the chamber containing the sensor chip. The signal is directly proportional to the amount of product bound to the protein. The binding tests were performed in a Biacore S51 machine (Biacore Inc., Piscataway N.J.). The entire GST-NOT protein (NOT-FL) was supplied by Invitrogen (PV3265). The domain for binding to the NOT ligand (His-Thr-NOT 329-598) was expressed and purified as described in Nature 423, 555-560. The two proteins, diluted to a concentration of 20 μg/ml in pH 5.0 acetate buffer containing 5 mM of DTT, were immobilized on a surface of carboxymethyl 5′ dextran (CM5 sensor chip, Biacore Inc.) via amine coupling according to the protocol recommended by Biacore, eluting with an HBS-N buffer (10 mM HEPES, 0.15 M NaCl, 3 mM EDTA, pH 7.4). Approximately 10 000-15 000 resonance units (RU) of the proteins are captured on the surface of the sensor chip CM5. […] Each concentration of product is injected at 4° C. for 1 minute at 30 μl/min. The dissociation was recorded for 5 minutes without any other surface regeneration procedure. […]

SMILES: Cc1ccc2nc(C(=O)c3ccccc3)cn2c1.Cl [Compound 1, (6-Methylimidazo[1,2-a]pyridin-2-yl)(phenyl)methanone hydrochloride (1:1)]
- EC50 (murine Nurr1 receptor): 0.3 nM
- affinity (classified by maximum binding level and kinetic parameters of binding to the immobilized protein) (human NOT receptor): moderate affinity

SMILES: Br.CC(C)(O)c1ccc2nc(C(=O)c3ccccc3)cn2c1 [Compound 3, [6-(1-Hydroxy-1-methylethyl)imidazo[1,2-a]pyridin-2-yl] (phenyl)-methanone hydrobromide (1:1)]
- EC50 (murine Nurr1 receptor): 0.2 nM
- affinity (classified by maximum binding level and kinetic parameters of binding to the immobilized protein) (human NOT receptor): moderate affinity

SMILES: O=C(c1ccccc1)c1cn2cc(-c3ccccc3)ccc2n1 [Compound 6, Phenyl(6-phenylimidazo[1,2-a]pyridin-2-yl)methanone]
- EC50 (murine Nurr1 receptor): 0.02 nM
